Experimental data published in patent US7566712B2, “Biaryl piperazinyl-pyridine analogues” (Neurogen Corporation, priority 2003, dated 2009).

These molecules were tested against T1, human capsaicin receptor (Homo sapiens, UniProt Q8NER1) (assay: Calcium mobilization assay, determination of antagonist activity (Example 6)). Settings: Table II; determined as described in Example 6 (antagonist activity); "*" = 1 micromolar or less.
T1 construct: pBK-CMV expression construct encoding the full length human capsaicin receptor; expressed in transfected cells
Type: cell-based
Procedure, shortened: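 HEK293 clonal lines stably expressing full-length human capsaicin receptor, loaded with Fluo-3 AM in KRH buffer pH 7.4, 1–2 h at 37 °C. Compounds (1–5 μM final) preincubated 0.5–6 h at room temperature, then capsaicin at its EC50 added. FLIPR/Fluoroskan calcium signal; IC50 as 50% decrease of capsaicin response.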

T1 sequence (Q8NER1 whole entry): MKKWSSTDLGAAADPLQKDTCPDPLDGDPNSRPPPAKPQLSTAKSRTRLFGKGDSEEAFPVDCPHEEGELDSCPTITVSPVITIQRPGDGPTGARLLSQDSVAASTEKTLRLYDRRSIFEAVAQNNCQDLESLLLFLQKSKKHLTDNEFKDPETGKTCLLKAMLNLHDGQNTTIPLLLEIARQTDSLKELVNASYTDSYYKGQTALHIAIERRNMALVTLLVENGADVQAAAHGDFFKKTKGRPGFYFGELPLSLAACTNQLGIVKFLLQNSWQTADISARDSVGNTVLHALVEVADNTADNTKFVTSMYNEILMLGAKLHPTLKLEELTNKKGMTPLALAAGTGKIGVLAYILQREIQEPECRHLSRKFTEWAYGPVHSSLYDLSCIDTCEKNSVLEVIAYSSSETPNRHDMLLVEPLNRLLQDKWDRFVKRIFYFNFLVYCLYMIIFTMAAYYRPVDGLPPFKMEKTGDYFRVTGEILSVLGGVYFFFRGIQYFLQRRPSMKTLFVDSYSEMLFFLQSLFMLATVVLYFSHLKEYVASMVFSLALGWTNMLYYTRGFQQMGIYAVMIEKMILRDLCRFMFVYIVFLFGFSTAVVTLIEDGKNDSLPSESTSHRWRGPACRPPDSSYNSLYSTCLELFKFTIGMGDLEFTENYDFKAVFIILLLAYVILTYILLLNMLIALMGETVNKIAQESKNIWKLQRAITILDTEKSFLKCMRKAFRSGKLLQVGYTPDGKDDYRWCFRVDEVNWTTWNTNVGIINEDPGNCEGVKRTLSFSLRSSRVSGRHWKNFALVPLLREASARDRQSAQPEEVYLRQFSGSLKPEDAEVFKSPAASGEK

IC50, ≤ 1000 nM:
O=C(O)C1CCCCN1c1nc(-c2ccc(F)c(Cl)c2)cc(N2CCN(c3ncccc3C(F)(F)F)CC2)n1 (stereo not shown) [Example 832, 1-(4-(3-chloro-4-fluorophenyl)-6-{4-[3-(trifluoromethyl)pyridin-2-yl]piperazin-1-yl}pyrimidin-2-yl)piperidine-2-carboxylic acid]
C[C@@H]1CN(c2ncccc2Cl)CCN1c1cc(-c2ccc(Cl)c(F)c2)nc(N2CCCC2)n1 [Example 833, 4-(4-chloro-3-fluorophenyl)-6-[(2R)-4-(3-chloropyridin-2-yl)-2-methylpiperazin-1-yl]-2-pyrrolidin-1-ylpyrimidine]
CC1CCCN1c1nc(-c2ccc(Cl)c(F)c2)cc(N2CCN(c3ncccc3Cl)C[C@H]2C)n1 (stereo partly shown) [Example 834, 4-(4-chloro-3-fluorophenyl)-6-[4-(3-chloropyridin-2-yl)-2-methylpiperazin-1-yl]-2-(2-methylpyrrolidin-1-yl)pyrimidine]
C[C@@H]1CN(c2ncccc2Cl)CCN1c1cc(-c2ccc(Cl)c(F)c2)nc(N2CCOCC2)n1 [Example 835, 4-{4-(4-chloro-3-fluorophenyl)-6-[(2R)-4-(3-chloropyridin-2-yl)-2-methylpiperazin-1-yl]pyrimidin-2-yl}morpholine]
CC1CCCN1c1nc(-c2ccc3c(c2)CN(C)CC3(C)C)cc(N2CCN(c3ncccc3C(F)(F)F)CC2)n1 (stereo not shown) [Example 836, 2,4,4-trimethyl-7-(2-(2-methylpyrrolidin-1-yl)-6-{4-[3-(trifluoromethyl)pyridin-2-yl]piperazin-1-yl}pyrimidin-4-yl)-1,2,3,4-tetrahydroisoquinoline]
C[C@@H]1CN(c2ncccc2Cl)CCN1c1cc(-c2cncc(Cl)c2)nc(N2CCOCC2)n1 [Example 837, 4-{4-(5-chloropyridin-3-yl)-6-[(2R)-4-(3-chloropyridin-2-yl)-2-methylpiperazin-1-yl]pyrimidin-2-yl}morpholine]
CCCN1CCN(c2nc(-c3cncc(Cl)c3)cc(N3CCN(c4ncccc4Cl)C[C@H]3C)n2)CC1 [Example 838, 4-(5-chloropyridin-3-yl)-6-[(2R)-4-(3-chloropyridin-2-yl)-2-methylpiperazin-1-yl]-2-(4-propylpiperazin-1-yl)pyrimidine]
COC[C@@H]1CCCN1c1nc(-c2ccc(F)cc2)cc(N2CCN(c3ncccc3Cl)C[C@H]2C)n1 [Example 843, 4-[(2R)-4-(3-chloropyridin-2-yl)-2-methylpiperazin-1-yl]-6-(4-fluorophenyl)-2-[(2S)-2-(methoxymethyl)pyrrolidin-1-yl]pyrimidine]
C[C@@H]1CN(c2ncccc2Cl)CCN1c1cc(-c2ccc(F)cc2)nc(N2CCCCC2)n1 [Example 844, 4-[(2R)-4-(3-chloropyridin-2-yl)-2-methylpiperazin-1-yl]-6-(4-fluorophenyl)-2-piperidin-1-ylpyrimidine]
C[C@@H]1CN(c2ncccc2Cl)CCN1c1cc(-c2ccc(F)cc2)nc(N2CCOCC2)n1 [Example 845, 4-[4-[(2R)-4-(3-chloropyridin-2-yl)-2-methylpiperazin-1-yl]-6-(4-fluorophenyl)pyrimidin-2-yl]morpholine]
CC(=O)c1nc(-c2ccc(F)c(C(C)=O)c2)cc(N2CCN(c3ncccc3C(F)(F)F)CC2)n1 [Example 846, 1-(4-(3-acetyl-4-fluorophenyl)-6-{4-[3-(trifluoromethyl)pyridin-2-yl]piperazin-1-yl}pyrimidin-2-yl)ethanone]
C[C@@H]1CN(c2ncccc2Cl)CCN1c1cc(-c2ccc(C#N)cc2)nc(S(C)(=O)=O)n1 [Example 847, 4-[6-[(2R)-4-(3-chloropyridin-2-yl)-2-methylpiperazin-1-yl]-2-(methylsulfonyi)pyrimidin-4-yl]benzonitrile]
O=C(O)CCc1cccc(-c2cc(N3CCN(c4ncccc4C(F)(F)F)CC3)nc(N3CCOCC3)n2)c1 [Example 848, 3-(3-(2-morpholin-4-yl-6-{4-[3-(trifluoromethyl)pyridin-2-yl]piperazin-1-yl}pyrimidin-4-yl)phenyl]propanoic acid]
O=C(O)CCc1ccc(-c2cc(N3CCN(c4ncccc4C(F)(F)F)CC3)nc(N3CCOCC3)n2)cc1 [Example 849, 3-[4-(2-morpholin-4-yl-6-{4-[3-(trifluorormethyl)pyridin-2-yl]piperazin-1-yl}pyrimidin-4-yl)phenyl]propanoic acid]
OCCCc1cccc(-c2cc(N3CCN(c4ncccc4C(F)(F)F)CC3)nc(N3CCOCC3)n2)c1 [Example 850, 3-[3-(2-morpholin-4-yl-6-{4-[3-(trifluoromethyl)pyridin-2-yl]piperazan-1-yl}pyrimidin-4-yl)phenyi]propan-1-ol]
CN(C)CCCc1cccc(-c2cc(N3CCN(c4ncccc4C(F)(F)F)CC3)nc(N3CCOCC3)n2)c1 [Example 851, N,N-dimethyl-3-[3-(2-morpholin-4-yl-6-{4-[3-(trifluoromethyl)pyridin-2-yl]piperazin-1-yl}pyrimidin-4-yl)phenyl]propan-1-amine]
Cc1cccnc1N1CCN(c2cc(-c3ccc(F)c(Cl)c3)nc(N3CCOCC3)n2)[C@H](C)C1 [Example 852, 4-{4-(3-chloro-4-fluorophenyl)-6-[(2R)-2-methyl-4-(3-methylpyridin-2-yl)piperazin-1-yl]pyrimidin-2-yl}morpholine]
CC1CCCN1c1nc(-c2ccc(F)c(Cl)c2)cc(N2CCN(c3ncccc3Cl)CC2=O)n1 (stereo not shown) [Example 853, 1-[6-(3-chloro-4-fluorophenyl)-2-(2-methylpyrrolidin-1-yl)pyrimidin-4-yl]-4-(3-chloropyridin-2-yl)piperazin-2-one]
COC[C@@H]1CCCN1c1nc(-c2cncc(Cl)c2)cc(N2CCN(c3ncccc3Cl)C[C@H]2C)n1 [Example 854, 4-(5-chloropyridin-3-yl)-6-[(2R)-4-(3-chloropyridin-2-yl)-2-methylpiperazin-1-yl]-2-[(2S)-2-(methoxymethyl)pyrrolidin-1-yl]pyrimidine]
CC1CCN1c1nc(-c2cncc(Cl)c2)cc(N2CCN(c3ncccc3Cl)C[C@H]2C)n1 (stereo partly shown) [Example 855, 4-(5-chloropyridin-3-yl)-6-[4-(3-chloropyridin-2-yl)-2-methylpiperazin-1-yl]-2-(2-methylazetidin-1-yl)pyrimidine]
CC(=O)c1ccc(-c2cc(N3CCN(c4ncccc4Cl)C[C@H]3C)nc(N3CCCC3)n2)cc1 [Example 856, 1-(4-{6-[(2R)-4-(3-chloropyridin-2-yl)-2-methylpiperazin-1-yl]-2-pyrrolidin-1-ylpyrimidin-4-yl)phenyl)ethanone]
CC(=O)c1ccc(-c2cc(N3CCN(c4ncccc4Cl)C[C@H]3C)nc(N3CCCC3C)n2)cc1 (stereo partly shown) [Example 857, 1-{4-[6-[4-(3-chloropyridin-2-yl)-2-methylpiperazin-1-yl]-2-(2-methylpyrrolidin-1-yl)pyrimidin-4-yl]phenyl}ethanone]
CC(=O)c1ccc(-c2cc(N3CCN(c4ncccc4Cl)C[C@H]3C)nc(N3CCOCC3)n2)cc1 [Example 858, 1-(4-{6-[(2R)-4-(3-chloropyridin-2-yl)-2-methylpiperazin-1-yl]-2-morpholin-4-ylpyrimidin-4-yl}phenyl)ethanone]
CC1CCCN1c1nc(-c2ccc(C#N)cc2)cc(N2CCN(c3ncccc3Cl)C[C@H]2C)n1 (stereo partly shown) [Example 859, 4-[6-[4-(3-chloropyridin-2-yl)-2-methylpiperazin-1-yl]-2-(2-methylpyrrolidin-1-yl)pyrimidin-4-yl]benzonitrile]
C[C@@H]1CN(c2ncccc2Cl)CCN1c1cc(-c2ccc(C#N)cc2)nc(N2CCCC2)n1 [Example 860, 4-{6-[(2R)-4-(3-chloropyridin-2-yl)-2-methylpiperazin-1-yl]-2-pyrrolidin-1-ylpyrimidin-4-yl}benzonitrite]
C[C@@H]1CN(c2ncccc2Cl)CCN1c1cc(-c2ccc(C#N)cc2)nc(N2CCOCC2)n1 [Example 861, 4-{6-[(2R)-4-(3-chloropyridin-2-yl)-2-methylpiperazin-1-yl]-2-morpholin-4-ylpyrimidin-4-yl}benzonitrile]
CC(=O)c1nc(-c2ccc(F)c(F)c2)cc(N2CCN(c3ncccc3C(F)(F)F)CC2)n1 [Example 862, 1-(4-(3,4-difluorophenyl)-6-{4-[3-(trifluoromethyl)pyridin-2-yl]piperazin-1-yl}pyrimidin-2-yl)ethanone]
CCCN1CC=C(c2nc(-c3ccc(F)c(Cl)c3)cc(N3CCN(c4ncccc4C(F)(F)F)CC3)n2)CC1 [Example 863, 4-(3-chloro-4-fluorophenyl)-2-(1-propyl-1,2,3,6-tetrahydropyridin-4-yl)-6-{4-[3-(trifluoromethyl)pyridin-2-yl]piperazin-1-yl}pyrimidine]
Fc1ccc(-c2cc(N3CCN(c4ncccc4C(F)(F)F)CC3)nc(C3=CCNCC3)n2)cc1Cl [Example 864, 4-(3-chloro-4-fluorophenyl)-2-(1,2,3,6-tetrahydropyridin-4-yl)-6-{4-(3-(trifluoromethyl)pyridin-2-yl]piperazin-1-yl}pyrimidine]
CC1CCCN1c1nc(-c2ccc(-c3ncon3)cc2)cc(N2CCN(c3ncccc3Cl)C[C@H]2C)n1 (stereo partly shown) [Example 865, 4-[4-(3-chloropyridin-2-yl)-2-methylpiperazin-1-yl]-2-(2-methylpyrrolidin-1-yl)-6-[4-(1,2,4-oxadiazol-3-yl)phenyl]pyrimidine]
C[C@@H]1CN(c2ncccc2Cl)CCN1c1cc(-c2cccc(C#N)c2)nc(N2CCCC2)n1 [Example 868, 3-{6-[(2R)-4-(3-chloropyridin-2-yl)-2-methylpiperazin-1-yl]-2-pyrrolidin-1-ylpyrimidin-4-yl}benzonitrile]
